{"source": "patent US10602743B2", "about": "“Method of inducing drought/salt tolerance using Bacillus megaterium” (Marrone Bio Innovations, Inc., priority 2012, dated 2020)"}
{"system": "Bacillus megaterium strain H491", "experiment": "Chemical sensitivity, Biolog Phenotypic Microarray", "type": "cell-based", "conditions": "not given"}
{"molecule": "Oc1cccc2cccnc12", "note": "[8-Hydroxyquinoline]", "H491 susceptible to compound": "susceptible"}
{"molecule": "O=C([O-])c1ccccc1O.[Na+]", "note": "[Salicylate, sodium]", "H491 susceptible to compound": "susceptible"}
{"molecule": "O=C(O)CN(CCN(CC(=O)O)CC(=O)O)CC(=O)O", "note": "[EDTA]", "H491 susceptible to compound": "susceptible"}
{"molecule": "O=NO", "note": "[Sodium Nitrite]", "H491 susceptible to compound": "susceptible"}
{"molecule": "O=C(O)CI", "note": "[Iodoacetic acid]", "H491 susceptible to compound": "susceptible"}
{"system": "Bacillus megaterium strain H491", "experiment": "Chemical sensitivity, Biolog Phenotypic Microarray", "type": "cell-based", "conditions": "Biolog Phenotypic Microarray, 25° C."}
{"molecule": "NC[C@@H]1O[C@H](O[C@H]2[C@@H](O)[C@H](O[C@@H]3[C@@H](O)[C@H](N)C[C@H](N)[C@H]3O[C@H]3O[C@H](CO)[C@@H](O)[C@H](O)[C@H]3N)O[C@@H]2CO)[C@H](N)[C@@H](O)[C@@H]1O", "note": "[Paromomycin]", "H491 susceptible to compound": "susceptible"}
{"molecule": "NC[C@H]1O[C@H](O[C@H]2[C@H](O)[C@@H](O[C@H]3O[C@H](CO)[C@@H](O)[C@H](N)[C@H]3O)[C@H](N)C[C@@H]2N)[C@H](N)C[C@@H]1O", "note": "[Tobramycin]", "H491 susceptible to compound": "susceptible"}
{"molecule": "[Na+].[O-][I+3]([O-])([O-])[O-]", "note": "[Sodium periodate]", "H491 susceptible to compound": "susceptible"}
{"molecule": "[Cl][Sb]([Cl])[Cl]", "note": "[Antimony (III) chloride]", "H491 susceptible to compound": "susceptible"}
{"molecule": "CCn1cc(C(=O)O)c(=O)c2ccc(C)nc21", "note": "[Nalidixic acid]", "H491 susceptible to compound": "susceptible"}
{"molecule": "c1ccc(-c2ccccn2)nc1", "note": "[2,2′-Dipyridyl]", "H491 susceptible to compound": "susceptible"}
{"molecule": "Oc1c(Cl)cc(Cl)c(Cl)c1Cc1c(O)c(Cl)cc(Cl)c1Cl", "note": "[Hexachlorophene]", "H491 susceptible to compound": "susceptible"}
{"molecule": "O=C1OC(CN2CCOCC2)CN1/N=C/c1ccc([N+](=O)[O-])o1", "note": "(centres unmarked) [Furaltadone]", "H491 susceptible to compound": "susceptible"}
{"molecule": "CC[C@H]1OC(=O)C[C@@H](O)[C@H](C)[C@@H](O[C@@H]2O[C@H](C)[C@@H](O[C@H]3C[C@@](C)(O)[C@@H](O)[C@H](C)O3)[C@H](N(C)C)[C@H]2O)[C@@H](CC=O)C[C@@H](C)C(=O)/C=C/C(C)=C/[C@@H]1CO[C@@H]1O[C@H](C)[C@@H](O)[C@@H](OC)[C@H]1OC", "note": "[Tylosin]", "H491 susceptible to compound": "susceptible"}
{"molecule": "O=[As]O", "note": "[Sodium Arsenite]", "H491 susceptible to compound": "susceptible"}
{"molecule": "CC1(C)S[C@@H]2[C@H](NC(=O)[C@H](N)c3ccc(O)cc3)C(=O)N2[C@H]1C(=O)O", "note": "[Amoxicillin]", "H491 susceptible to compound": "susceptible"}
{"molecule": "Neomycin", "H491 susceptible to compound": "susceptible"}
{"molecule": "O=C1C2CC=CCC2C(=O)N1SC(Cl)(Cl)Cl", "note": "(centres unmarked) [Captan]", "H491 susceptible to compound": "susceptible"}
{"molecule": "Nc1ccc(S(=O)(=O)Nc2ccc(Cl)nn2)cc1", "note": "[Sulfachloropyridazine]", "H491 susceptible to compound": "susceptible"}
{"molecule": "NC(=O)c1cc[n+](CC2=C(C(=O)O)N3C(=O)[C@@H](NC(=O)[C@@H](c4ccccc4)S(=O)(=O)[O-])[C@H]3SC2)cc1", "note": "[Cefsulodin]", "H491 susceptible to compound": "susceptible"}
{"molecule": "[Cl][Cd][Cl]", "note": "[Cadmium chloride]", "H491 susceptible to compound": "susceptible"}
{"molecule": "Nc1ccc(S(N)(=O)=O)cc1", "note": "[Sulfanilamide]", "H491 susceptible to compound": "susceptible"}
{"molecule": "CC1(S(=O)(=O)[O-])CC(=O)c2ccccc2C1=O.[Na+]", "note": "(centres unmarked) [Menadione, sodium bisulfite]", "H491 susceptible to compound": "susceptible"}
{"molecule": "O=c1cc(O)c2ccccc2o1", "note": "[4-Hydroxycoumarin]", "H491 susceptible to compound": "susceptible"}
{"molecule": "CN(C)S(=O)(=O)N(SC(F)(Cl)Cl)c1ccccc1", "note": "[Dichlofluanid]", "H491 susceptible to compound": "susceptible"}
{"molecule": "Cc1onc(-c2ccccc2Cl)c1C(=O)N[C@@H]1C(=O)N2[C@@H]1SC(C)(C)[C@@H]2C(=O)O", "note": "[Cloxacillin]", "H491 susceptible to compound": "susceptible"}
{"molecule": "CCS(=O)(=O)CCn1c([N+](=O)[O-])cnc1C", "note": "[Tinidazole]", "H491 susceptible to compound": "susceptible"}
{"molecule": "[Na+].[Na+].[Na+].[O]=[V]([O-])([O-])[O-]", "note": "[Sodium orthovanadate]", "H491 susceptible to compound": "susceptible"}
{"molecule": "[Na+].[Na+].[O]=[W](=[O])([O-])[O-]", "note": "[Sodium Tungstate]", "H491 susceptible to compound": "susceptible"}
{"molecule": "O=[Te]([O-])[O-].[K+].[K+]", "note": "[Potassium tellurite]", "H491 susceptible to compound": "susceptible"}
{"molecule": "[Na+].[Na+].[O]=[Cr](=[O])([O-])[O][Cr](=[O])(=[O])[O-]", "note": "[Sodium Dichromate]", "H491 susceptible to compound": "susceptible"}
{"molecule": "CCN(CC)CC(=O)Nc1c(C)cccc1C", "note": "[Lidocaine]", "H491 susceptible to compound": "susceptible"}
{"molecule": "CO[C@H]1C[C@H](O[C@H]2[C@H](C)[C@@H](O[C@@H]3O[C@H](C)C[C@H](N(C)C)[C@H]3OC(C)=O)[C@@H](C)C[C@@]3(CO3)C(=O)[C@H](C)[C@@H](OC(C)=O)[C@@H](C)[C@@H](C)OC(=O)[C@@H]2C)O[C@@H](C)[C@@H]1OC(C)=O", "note": "[Troleandomycin]", "H491 susceptible to compound": "susceptible"}
{"molecule": "Oc1c(I)cc(Cl)c2cccnc12", "note": "[5-Chloro-7-iodo-8-hydroxy-quinoline]", "H491 susceptible to compound": "susceptible"}
{"molecule": "[Cl-].[Cs+]", "note": "[Cesium chloride]", "H491 susceptible to compound": "susceptible"}
{"molecule": "N[C@@H](CC(=O)NO)C(=O)O", "note": "[L-Aspartic-b-hydroxamate]", "H491 susceptible to compound": "susceptible"}
{"molecule": "O=c1[nH]c(=O)n([C@H]2C[C@H](O)[C@@H](CO)O2)cc1C(F)(F)F", "note": "[Trifluorothymidine]", "H491 susceptible to compound": "susceptible"}
{"molecule": "CN[C@H](CC(C)C)C(=O)N[C@H]1C(=O)N[C@@H](CC(N)=O)C(=O)N[C@H]2C(=O)N[C@H]3C(=O)N[C@H](C(=O)N[C@H](C(=O)O)c4cc(O)cc(O)c4-c4cc3ccc4O)[C@H](O)c3ccc(c(Cl)c3)Oc3cc2cc(c3O[C@@H]2O[C@H](CO)[C@@H](O)[C@H](O)[C@H]2O[C@H]2C[C@](C)(N)[C@H](O)[C@H](C)O2)Oc2ccc(cc2Cl)[C@H]1O", "note": "[Vancomycin]", "H491 susceptible to compound": "susceptible"}
{"molecule": "OC(CCN1CCCCC1)(c1ccccc1)c1ccccc1", "note": "[Pridinol]", "H491 susceptible to compound": "susceptible"}
{"molecule": "CCN(CC)C(=S)SSC(=S)N(CC)CC", "note": "[Tetraethylthiuram disulfide]", "H491 susceptible to compound": "susceptible"}
{"molecule": "NC(=O)NN=Cc1ccc([N+](=O)[O-])o1", "note": "[5-Nitro-2-furaldehyde semicarbazone]", "H491 susceptible to compound": "susceptible"}
{"molecule": "CN(C)c1ccc(C(=C2C=CC(=[N+](C)C)C=C2)c2ccc(N(C)C)cc2)cc1", "note": "[Crystal violet]", "H491 susceptible to compound": "susceptible"}
{"molecule": "N#CO", "note": "[Sodium Cyanate]", "H491 susceptible to compound": "susceptible"}
{"molecule": "Cc1nnc(SCC2=C(C(=O)O)N3C(=O)[C@@H](NC(=O)Cn4cnnn4)[C@H]3SC2)s1", "note": "[Cefazolin]", "H491 susceptible to compound": "susceptible"}
{"molecule": "Cc1ccc(N(SC(F)(Cl)Cl)S(=O)(=O)N(C)C)cc1", "note": "[Tolylfluanid]", "H491 susceptible to compound": "susceptible"}
{"molecule": "CC(C)NCC(O)COc1cccc2ccccc12", "note": "(racemic) [D,L-Propanolol]", "H491 susceptible to compound": "susceptible"}
{"molecule": "CO[C@@H]1[C@@H](OC(N)=O)[C@@H](O)[C@H](Oc2ccc3c(O)c(NC(=O)c4ccc(O)c(CC=C(C)C)c4)c(=O)oc3c2C)OC1(C)C", "note": "[Novobiocin]", "H491 susceptible to compound": "susceptible"}
{"molecule": "CC1(C)S[C@@H]2[C@H](NC(=O)[C@H](NC(=O)N3CCNC3=O)c3ccccc3)C(=O)N2[C@H]1C(=O)O", "note": "[Azlocillin]", "H491 susceptible to compound": "susceptible"}
{"molecule": "CN[C@@H]1[C@@H](O[C@H]2O[C@H](CO)[C@@H](N)[C@H](O)[C@H]2O)OC2C[C@@H](N)[C@@H](O[C@H]3[C@H](O)[C@@H](O)[C@H](N)C[C@@H]3N)OC2[C@@H]1O", "note": "(some centres unmarked) [Apramycin]", "H491 susceptible to compound": "susceptible"}
{"molecule": "Sodium metavanadate", "H491 susceptible to compound": "susceptible"}
{"molecule": "O=C(O)c1[nH]c(=O)[nH]c(=O)c1F", "note": "[5-Fluoroorotic acid]", "H491 susceptible to compound": "susceptible"}
{"molecule": "C[n+]1ccc(-c2cc[n+](C)cc2)cc1", "note": "[Methyl viologen]", "H491 susceptible to compound": "susceptible"}
{"molecule": "CC1=C(C(=O)Nc2ccccc2)S(=O)(=O)CCO1", "note": "[Oxycarboxin]", "H491 susceptible to compound": "susceptible"}
{"molecule": "Capreomycin", "H491 susceptible to compound": "susceptible"}
{"molecule": "Oc1c(Cl)c(Cl)c(Cl)c(Cl)c1Cl", "note": "[Pentachlorophenol]", "H491 susceptible to compound": "susceptible"}
{"molecule": "[Cl-].[Li+]", "note": "[Lithium chloride]", "H491 susceptible to compound": "susceptible"}
{"molecule": "CC(=O)O.CC(=O)O.NC(=N\\CCCCCC/N=C(N)/N=C(\\N)Nc1ccc(Cl)cc1)/N=C(\\N)Nc1ccc(Cl)cc1", "note": "[Chlorhexidine diacetate]", "H491 susceptible to compound": "susceptible"}
{"molecule": "N[C@H](CO)C(=O)O", "note": "[D-Serine]", "H491 susceptible to compound": "susceptible"}
{"molecule": "CC(=O)OCC1=C(C(=O)O)N2C(=O)[C@@H](NC(=O)Cc3cccs3)[C@H]2SC1", "note": "[Cephalothin]", "H491 susceptible to compound": "susceptible"}
{"molecule": "Penimepicycline", "H491 susceptible to compound": "susceptible"}
{"molecule": "O=C(O)c1cc(O)c(O)c(O)c1", "note": "[Gallic acid]", "H491 susceptible to compound": "susceptible"}
{"molecule": "Spiramycin", "H491 susceptible to compound": "susceptible"}
{"molecule": "CC(CN1c2ccccc2Sc2ccccc21)N(C)C", "note": "(centres unmarked) [Promethazine]", "H491 susceptible to compound": "susceptible"}
{"molecule": "N.N.N.N.N.N.[Cl-].[Cl-].[Cl-].[Co+3]", "note": "[Hexamine cobalt (III) chloride]", "H491 susceptible to compound": "susceptible"}
{"molecule": "O=[N+]([O-])c1ncc[nH]1", "note": "[2-Nitroimidazole]", "H491 susceptible to compound": "susceptible"}
{"molecule": "Cc1ncc([N+](=O)[O-])n1CC(O)CCl", "note": "(centres unmarked) [Ornidazole]", "H491 susceptible to compound": "susceptible"}
{"molecule": "CN1CCN(CCCN2c3ccccc3Sc3ccc(C(F)(F)F)cc32)CC1", "note": "[Trifluoperazine]", "H491 susceptible to compound": "susceptible"}
{"molecule": "Cc1ccccc1C(OCCN(C)C)c1ccccc1", "note": "(centres unmarked) [Orphenadrine]", "H491 susceptible to compound": "susceptible"}
{"molecule": "CC1(C)S[C@@H]2[C@H](NC(=O)Cc3ccccc3)C(=O)N2[C@H]1C(=O)O", "note": "[Penicillin G]", "H491 susceptible to compound": "susceptible"}
{"molecule": "CC(C(=O)O)c1cccc(C(=O)c2ccccc2)c1", "note": "(centres unmarked) [Ketoprofen]", "H491 susceptible to compound": "susceptible"}
{"system": "Bacillus megaterium strain H491", "experiment": "Chemical sensitivity, Biolog Phenotypic Microarray", "type": "cell-based", "conditions": "Biolog Phenotypic Microarray; at a maximum concentration of 4 ug"}
{"molecule": "CN[C@@H]1[C@H](O)[C@H](NC)[C@H]2O[C@@]3(O)C(=O)C[C@@H](C)O[C@H]3O[C@@H]2[C@H]1O", "note": "[spectinomycin]", "Resistance of H491 observed in wells containing compound": "Resistance"}
{"molecule": "Cc1cc(C)nc(NS(=O)(=O)c2ccc(N)cc2)n1", "note": "[sulfamethazine]", "Resistance of H491 observed in wells containing compound": "Resistance"}
{"molecule": "CCn1cc(C(=O)O)c(=O)c2cc3c(cc21)OCO3", "note": "[oxolinic acid]", "Resistance of H491 observed in wells containing compound": "Resistance"}
{"molecule": "CCn1cc(C(=O)O)c(=O)c2cc(F)c(N3CCNC(C)C3)c(F)c21", "note": "(centres unmarked) [lomefloxacin]", "Resistance of H491 observed in wells containing compound": "Resistance"}
